Experiments:
[1] = test system: broadleaf signalgrass; experiment: Test G preemergence test; format: in vivo, Brachiaria platyphylla; settings: scale 0 to 100
[2] = test system: millet; experiment: Test G preemergence test; format: in vivo, Panicum miliaceum; settings: scale 0 to 100
[3] = test system: winter wheat; experiment: Test D preemergence test; format: in vivo, Triticum aestivum; settings: scale 0 to 100
How it was run: (§1)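 Sow seeds, then treat soil surface preemergence with compound in non-phytotoxic solvent mix with surfactant; "-" indicates no test result.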

[4] = test system: wild oat; experiment: Test D preemergence test; format: in vivo, Avena fatua; settings: scale 0 to 100
How it was run: as §1

[5] = test system: tall waterhemp; experiment: Test G preemergence test; format: in vivo, Amaranthus tuberculatos; settings: scale 0 to 100
[6] = test system: woolly cupgrass; experiment: Test G preemergence test; format: in vivo, Eriochloa villosa; settings: scale 0 to 100
[7] = test system: littleseed canarygrass; experiment: Test D preemergence test; format: in vivo, Phalaris minor; settings: scale 0 to 100
How it was run: as §1

[8] = test system: barnyardgrass; experiment: Test B flooded paddy test; format: in vivo, Echinochloa crus-galli; settings: Flood, 250 g ai/ha, 13 to 15 days; scale 0 to 100, 0 no effect, 100 complete control
Text: (§2) At time of treatment, test pots were flooded to 3 cm above the soil surface, treated by application of test compounds directly to the paddy water, and then maintained at that water depth for the duration of the test. Treated plants and controls were maintained in a greenhouse for 13 to 15 days, after which time all species were compared to controls and visually evaluated. […] A dash (-) response means no test result.

[9] = test system: eastern black nightshade; experiment: Test G preemergence test; format: in vivo, Solanum ptycanthum; settings: scale 0 to 100
[10] = test system: umbrella sedge; experiment: Test B flooded paddy test; format: in vivo, Cyperus difformis; settings: Flood, 250 g ai/ha, 13 to 15 days; scale 0 to 100, 0 no effect, 100 complete control
Text: as §2

[11] = test system: giant foxtail; experiment: Test G preemergence test; format: in vivo, Setaria faberii; settings: scale 0 to 100
[12] = test system: rice; experiment: Test B flooded paddy test; format: in vivo, Oryza sativa; settings: Flood, 250 g ai/ha, 13 to 15 days; scale 0 to 100, 0 no effect, 100 complete control
Text: as §2

[13] = test system: duck salad; experiment: Test B flooded paddy test; format: in vivo, Heteranthera limosa; settings: Flood, 250 g ai/ha, 13 to 15 days; scale 0 to 100, 0 no effect, 100 complete control
Text: as §2

[14] = test system: soybean; experiment: Test G preemergence test; format: in vivo, Glycine max; settings: scale 0 to 100
[15] = test system: winter barley; experiment: Test D preemergence test; format: in vivo, Hordeum vulgare
How it was run: as §1

[16] = test system: annual bluegrass; experiment: Test D preemergence test; format: in vivo, Poa annua; settings: scale 0 to 100
How it was run: as §1

[17] = test system: green foxtail; experiment: Test D preemergence test; format: in vivo, Setaria viridis; settings: scale 0 to 100
How it was run: as §1

[18] = test system: barnyardgrass; experiment: Test G preemergence test; format: in vivo, Echinochloa crus-galli; settings: scale 0 to 100
[19] = test system: field sandbur; experiment: Test G preemergence test; format: in vivo, Cenchrus incertus; settings: scale 0 to 100
[20] = test system: large crabgrass; experiment: Test G preemergence test; format: in vivo, Digitaria sanguinalis; settings: scale 0 to 100
[21] = test system: field violet; experiment: Test D preemergence test; format: in vivo, Viola arvensis; settings: scale 0 to 100
How it was run: as §1

[22] = test system: lambsquarters; experiment: Test G preemergence test; format: in vivo, Chenopodium album; settings: scale 0 to 100
[23] = test system: windgrass; experiment: Test D preemergence test; format: in vivo, Apera spica-venti; settings: scale 0 to 100
How it was run: as §1

[24] = test system: goosegrass; experiment: Test G preemergence test; format: in vivo, Eleusine indica; settings: scale 0 to 100
[25] = test system: corn; experiment: Test G preemergence test; format: in vivo, Zea mays; settings: scale 0 to 100
[26] = test system: millet foxtail; experiment: Test G preemergence test; format: in vivo, Setaria italica; settings: scale 0 to 100

Cc1cc[n+]([O-])c([S+]([O-])Cc2c(C(F)(F)F)nn(C)c2OC(F)F)c1 (centres unmarked) [Compound 1]
50: Plant response rating, Wheat, Winter ([3]; 125 g ai/ha) | Plant response rating, Cupgrass, Woolly ([6]; 125 g ai/ha) | Plant response rating, Barley ([15]; preemergence, 250 g ai/ha, scale 0 (no effect) to 100 (complete control))
90: Plant response rating, Ducksalad [13] | Plant response rating, Bluegrass ([16]; 125 g ai/ha) | Plant response rating, Goosegrass ([24]; 62 g ai/ha)
80: Plant response rating, Canarygrass ([7]; 125 g ai/ha) | Plant response rating, Barnyardgrass [8] | Plant response rating, Rice, Transplanted [12]
100: Plant response rating, Signalgrass ([1]; 250 g ai/ha) | Plant response rating, Millet ([2]; 250 g ai/ha) | Plant response rating, Waterhemp ([5]; 62 g ai/ha) | Plant response rating, Waterhemp ([5]; 125 g ai/ha) | Plant response rating, Waterhemp ([5]; 250 g ai/ha) | Plant response rating, Cupgrass, Woolly ([6]; 250 g ai/ha) | Plant response rating, Canarygrass ([7]; 62 g ai/ha) | Plant response rating, Canarygrass ([7]; 250 g ai/ha) | Plant response rating, Nightshade ([9]; 125 g ai/ha) | Plant response rating, Nightshade ([9]; 250 g ai/ha) | Plant response rating, Umbrella Sedge [10] | Plant response rating, Foxtail, Giant ([11]; 125 g ai/ha) | Plant response rating, Foxtail, Giant ([11]; 250 g ai/ha) | Plant response rating, Bluegrass ([16]; 250 g ai/ha) | Plant response rating, Foxtail, Green ([17]; 125 g ai/ha) | Plant response rating, Foxtail, Green ([17]; 250 g ai/ha) | Plant response rating, Barnyardgrass ([18]; 125 g ai/ha) | Plant response rating, Barnyardgrass ([18]; 250 g ai/ha) | Plant response rating, Sandbur ([19]; 250 g ai/ha) | Plant response rating, Crabgrass, Large ([20]; 62 g ai/ha) | Plant response rating, Crabgrass, Large ([20]; 125 g ai/ha) | Plant response rating, Crabgrass, Large ([20]; 250 g ai/ha) | Plant response rating, Lambsquarters ([22]; 62 g ai/ha) | Plant response rating, Lambsquarters ([22]; 125 g ai/ha) | Plant response rating, Lambsquarters ([22]; 250 g ai/ha) | Plant response rating, Windgrass ([23]; 125 g ai/ha) | Plant response rating, Windgrass ([23]; 250 g ai/ha) | Plant response rating, Goosegrass ([24]; 125 g ai/ha) | Plant response rating, Goosegrass ([24]; 250 g ai/ha) | Plant response rating, Foxtail, Millet ([26]; 62 g ai/ha) | Plant response rating, Foxtail, Millet ([26]; 125 g ai/ha) | Plant response rating, Foxtail, Millet ([26]; 250 g ai/ha)
40: Plant response rating, Oat, Wild ([4]; 250 g ai/ha) | Plant response rating, Waterhemp ([5]; 31 g ai/ha) | Plant response rating, Barley ([15]; Preemergence, 125 g ai/ha, scale 0 to 100) | Plant response rating, Sandbur ([19]; 62 g ai/ha)
45: Plant response rating, Corn ([25]; 250 g ai/ha)
25: Plant response rating, Millet ([2]; 62 g ai/ha) | Plant response rating, Soybean ([14]; 250 g ai/ha)
10: Plant response rating, Crabgrass, Large ([20]; 31 g ai/ha) | Plant response rating, Windgrass ([23]; 31 g ai/ha) | Plant response rating, Corn ([25]; 125 g ai/ha)
5: Plant response rating, Wheat, Winter ([3]; 62 g ai/ha) | Plant response rating, Corn ([25]; 62 g ai/ha)
70: Plant response rating, Signalgrass ([1]; 62 g ai/ha) | Plant response rating, Signalgrass ([1]; 125 g ai/ha) | Plant response rating, Cupgrass, Woolly ([6]; 62 g ai/ha) | Plant response rating, Windgrass ([23]; 62 g ai/ha) | Plant response rating, Goosegrass ([24]; 31 g ai/ha)
75: Plant response rating, Bluegrass ([16]; 62 g ai/ha) | Plant response rating, Field Violet ([21]; 250 g ai/ha)
0: Plant response rating, Millet ([2]; 31 g ai/ha) | Plant response rating, Wheat, Winter ([3]; 31 g ai/ha) | Plant response rating, Oat, Wild ([4]; 31 g ai/ha) | Plant response rating, Oat, Wild ([4]; 62 g ai/ha) | Plant response rating, Canarygrass ([7]; 31 g ai/ha) | Plant response rating, Nightshade ([9]; 31 g ai/ha) | Plant response rating, Soybean ([14]; 31 g ai/ha) | Plant response rating, Barley ([15]; Preemergence, 62 g ai/ha, scale 0 to 100) | Plant response rating, Barley ([15]; Preemergence, 31 g ai/ha, scale 0 to 100) | Plant response rating, Bluegrass ([16]; 31 g ai/ha) | Plant response rating, Foxtail, Green ([17]; 31 g ai/ha) | Plant response rating, Sandbur ([19]; 31 g ai/ha) | Plant response rating, Lambsquarters ([22]; 31 g ai/ha) | Plant response rating, Corn ([25]; 31 g ai/ha) | Plant response rating, Foxtail, Millet ([26]; 31 g ai/ha)
65: Plant response rating, Barnyardgrass ([18]; 62 g ai/ha) | Plant response rating, Sandbur ([19]; 125 g ai/ha)
60: Plant response rating, Wheat, Winter ([3]; 250 g ai/ha)
20: Plant response rating, Signalgrass ([1]; 31 g ai/ha) | Plant response rating, Millet ([2]; 125 g ai/ha) | Plant response rating, Oat, Wild ([4]; 125 g ai/ha) | Plant response rating, Foxtail, Giant ([11]; 31 g ai/ha) | Plant response rating, Soybean ([14]; 62 g ai/ha) | Plant response rating, Soybean ([14]; 125 g ai/ha) | Plant response rating, Barnyardgrass ([18]; 31 g ai/ha) | Plant response rating, Field Violet ([21]; 31 g ai/ha) | Plant response rating, Field Violet ([21]; 62 g ai/ha) | Plant response rating, Field Violet ([21]; 125 g ai/ha)
95: Plant response rating, Foxtail, Giant ([11]; 62 g ai/ha) | Plant response rating, Foxtail, Green ([17]; 62 g ai/ha)
30: Plant response rating, Cupgrass, Woolly ([6]; 31 g ai/ha) | Plant response rating, Nightshade ([9]; 62 g ai/ha)
